From patent US20260053811A1, “METHODS OF TREATING HYPERTENSION IN OBESE SUBJECTS” (Mineralys Therapeutics, Inc., priority 2022, published 2026)

Tested on: hypertensive subjects
Assay: 24-hour ambulatory blood pressure monitoring (ABPM), incl. nighttime dip
Type: in vivo, human
Settings: Part 1; for LSM Δ with Placebo, 24-hr DBP (ABPM, ANCOVA) / LSM Δ with Placebo, 24-hr Mean MAP (ABPM, ANCOVA) / LSM Δ with Placebo, 24-hr SBP (ABPM, ANCOVA) / LSM Δ with Placebo, Daytime Mean DBP (ABPM, ANCOVA) / LSM Δ with Placebo, Daytime Mean SBP (ABPM, ANCOVA) / LSM Δ with Placebo, Mean Central DBP (ABPM, ANCOVA) / LSM Δ with Placebo, Mean Central Mean BP (ABPM, ANCOVA) / LSM Δ with Placebo, Mean Central SBP (ABPM, ANCOVA) / LSM Δ with Placebo, Nighttime Mean DBP (ABPM, ANCOVA) / LSM Δ with Placebo, Nighttime Mean SBP (ABPM, ANCOVA): End of Treatment, FAS post-hoc; for 24-hr Mean DBP (ABPM), Mean (SD) / 24-hr Mean MAP (ABPM), Mean (SD) / 24-hr Mean SBP (ABPM), Mean (SD) / Daytime Mean DBP (ABPM), Mean (SD) / Daytime Mean SBP (ABPM), Mean (SD) / Nighttime Mean DBP (ABPM), Mean (SD) / Nighttime Mean SBP (ABPM), Mean (SD) / Subjects with nighttime dip 10-20% in 24-hour systolic ABPM / Subjects with nighttime dip <10% in 24-hour systolic ABPM / Subjects with nighttime dip >20% in 24-hour systolic ABPM: EoT; for 24-hr Mean DBP (ABPM), Mean (SD) / 24-hr Mean MAP (ABPM), Mean (SD) / 24-hr Mean SBP (ABPM), Mean (SD) / Daytime Mean DBP (ABPM), Mean (SD) / Daytime Mean SBP (ABPM), Mean (SD) / Nighttime Mean DBP (ABPM), Mean (SD) / Nighttime Mean SBP (ABPM), Mean (SD) / Subjects with nighttime dip 10-20% in 24-hour systolic ABPM / Subjects with nighttime dip <10% in 24-hour systolic ABPM / Subjects with nighttime dip >20% in 24-hour systolic ABPM / 24-hr Mean DBP (ABPM) CFB to EoT, Mean (SD) / 24-hr Mean MAP (ABPM) CFB to EoT, Mean (SD) / 24-hr Mean SBP (ABPM) CFB to EoT, Mean (SD) / Daytime Mean DBP (ABPM) CFB to EoT, Mean (SD) / Daytime Mean SBP (ABPM) CFB to EoT, Mean (SD) / Nighttime Mean DBP (ABPM) CFB to EoT, Mean (SD) / Nighttime Mean SBP (ABPM) CFB to EoT, Mean (SD): FAS
Experimental: Ambulatory blood pressure monitoring was accomplished with an ambulatory blood pressure monitoring device that consists of a blood pressure cuff worn on a subject's arm attached to a small recording device that is typically attached to the subject's belt or waistband.
The ABPM device is worn for 24 hours. Throughout that period, the device records the subject's blood pressure at regular intervals, during the subject's routine daily activities and while they are sleeping. The ABPM thus provides a complete record of the subject's blood pressure over a 24-hour period.
24-hour ABPM was measured in the clinic at baseline and Study Week 7. If, for any reason, the ABPM procedure was deemed a failure at the end of Study Week 7, it may have been repeated at Study Week 8 and therefore no imputation was employed regardless of use of rescue medications. Additionally, ABPM was also collected at the end of Study Week 4 in Part 2. If a repeat test was performed, it supersedes the original test results for that visit.
Specific derived variables based on ABPM measurements include mean 24-hour, mean Daytime, and mean Nighttime of SBP, DBP, and heart rate.
Change from baseline to Week 7 in 24-hour mean SBP (and DBP) based on ABPM will be analyzed using an ANCOVA with a term for treatment group and a baseline mean 24-hour value as a covariate.
The nighttime dip is defined as
100%×(mean daytime SBP−mean nighttime SBP)/mean daytime SBP
It is expressed as a percentage and is summarized by treatment group and visit using descriptive statistics. In addition, the number and percentage of subjects with nighttime dip in each of the dipper categories (Bloomfield & Park, 2015) is presented by treatment group and visit. The categories are: • (a) <10% • (b) 10-20% inclusive • (c) >20%
Secondary endpoints of this study were: • (a) Change in 24-hour ambulatory blood pressure monitoring (ABPM) parameters (systolic and diastolic) from baseline to the end of Study Week 7. • (b) Change in office-measured SBP from baseline to the end of Study Weeks 1, 2, 3, 4, 5, 6, and 7. • (c) Change in office-measured diastolic blood pressure (DBP) from baseline to the end of Study Weeks 1, 2, 3, 4, 5, 6, 7, and 8. • (d) Proportion of subjects who achieve office-measured BP of ≤130/80 mm Hg by the end of Study Week 8.

## CC(=O)N[C@H]1CC[C@H](NC(=O)CN2CCN(c3nncc(-c4ccc(C)cc4)n3)CC2)CC1 [Compound A HBr]
12.5 mg BID
  LSM Δ with Placebo, 24-hr DBP (ABPM, ANCOVA): −4.24 mmHg
  LSM Δ with Placebo, 24-hr Mean MAP (ABPM, ANCOVA): −4.58 mmHg
  LSM Δ with Placebo, 24-hr SBP (ABPM, ANCOVA): −4.76 mmHg
  LSM Δ with Placebo, Daytime Mean DBP (ABPM, ANCOVA): −4.19 mmHg
  LSM Δ with Placebo, Daytime Mean SBP (ABPM, ANCOVA): −4.96 mmHg
  LSM Δ with Placebo, Mean Central DBP (ABPM, ANCOVA): −4.85 mmHg
  LSM Δ with Placebo, Mean Central Mean BP (ABPM, ANCOVA): −6.08 mmHg
  LSM Δ with Placebo, Mean Central SBP (ABPM, ANCOVA): −7.19 mmHg
  LSM Δ with Placebo, Nighttime Mean DBP (ABPM, ANCOVA): −3.92 mmHg
  LSM Δ with Placebo, Nighttime Mean SBP (ABPM, ANCOVA): −3.9 mmHg
  24-hr Mean DBP (ABPM), Mean (SD): 77.63 (11.03) mmHg
  24-hr Mean MAP (ABPM), Mean (SD): 105.41 (12.62) mmHg
  24-hr Mean SBP (ABPM), Mean (SD): 133.19 (14.86) mmHg
  Daytime Mean DBP (ABPM), Mean (SD): 79.69 (10.81) mmHg
  Daytime Mean SBP (ABPM), Mean (SD): 135.38 (14.97) mmHg
  Nighttime Mean DBP (ABPM), Mean (SD): 72.44 (12.25) mmHg
  Nighttime Mean SBP (ABPM), Mean (SD): 126.81 (16.69) mmHg
  Subjects with nighttime dip 10-20% in 24-hour systolic ABPM: 5 (31.3) n (%)
  Subjects with nighttime dip <10% in 24-hour systolic ABPM: 11 (68.8) n (%)
  Subjects with nighttime dip >20% in 24-hour systolic ABPM: 0 n (%)
  24-hr Mean DBP (ABPM) CFB to EoT, Mean (SD): −5.38 (8.59) mmHg
  24-hr Mean MAP (ABPM) CFB to EoT, Mean (SD): −5.53 (10.63) mmHg
  24-hr Mean SBP (ABPM) CFB to EoT, Mean (SD): −5.69 (12.90) mmHg
  Daytime Mean DBP (ABPM) CFB to EoT, Mean (SD): −4.25 (9.64) mmHg
  Daytime Mean SBP (ABPM) CFB to EoT, Mean (SD): −4.06 (14.48) mmHg
  Nighttime Mean DBP (ABPM) CFB to EoT, Mean (SD): −6.00 (10.17) mmHg
  Nighttime Mean SBP (ABPM) CFB to EoT, Mean (SD): −7.50 (16.17) mmHg
12.5 mg QD
  LSM Δ with Placebo, 24-hr DBP (ABPM, ANCOVA): −1.44 mmHg
  LSM Δ with Placebo, 24-hr Mean MAP (ABPM, ANCOVA): −1.62 mmHg
  LSM Δ with Placebo, 24-hr SBP (ABPM, ANCOVA): −1.5 mmHg
  LSM Δ with Placebo, Daytime Mean DBP (ABPM, ANCOVA): −2.47 mmHg
  LSM Δ with Placebo, Daytime Mean SBP (ABPM, ANCOVA): −2.14 mmHg
  LSM Δ with Placebo, Mean Central DBP (ABPM, ANCOVA): −1.29 mmHg
  LSM Δ with Placebo, Mean Central Mean BP (ABPM, ANCOVA): 0.06 mmHg
  LSM Δ with Placebo, Mean Central SBP (ABPM, ANCOVA): 1.92 mmHg
  LSM Δ with Placebo, Nighttime Mean DBP (ABPM, ANCOVA): −1.53 mmHg
  LSM Δ with Placebo, Nighttime Mean SBP (ABPM, ANCOVA): −0.21 mmHg
  24-hr Mean DBP (ABPM), Mean (SD): 79.93 (7.33) mmHg
  24-hr Mean MAP (ABPM), Mean (SD): 109.47 (10.81) mmHg
  24-hr Mean SBP (ABPM), Mean (SD): 139.00 (16.31) mmHg
  Daytime Mean DBP (ABPM), Mean (SD): 81.53 (6.79) mmHg
  Daytime Mean SBP (ABPM), Mean (SD): 141.13 (15.62) mmHg
  Nighttime Mean DBP (ABPM), Mean (SD): 74.29 (9.59) mmHg
  Nighttime Mean SBP (ABPM), Mean (SD): 132.00 (18.11) mmHg
  Subjects with nighttime dip 10-20% in 24-hour systolic ABPM: 5 (35.7) n (%)
  Subjects with nighttime dip <10% in 24-hour systolic ABPM: 9 (64.3) n (%)
  Subjects with nighttime dip >20% in 24-hour systolic ABPM: 0 n (%)
  24-hr Mean DBP (ABPM) CFB to EoT, Mean (SD): −2.27 (8.35) mmHg
  24-hr Mean MAP (ABPM) CFB to EoT, Mean (SD): −3.73 (12.21) mmHg
  24-hr Mean SBP (ABPM) CFB to EoT, Mean (SD): −5.20 (16.55) mmHg
  Daytime Mean DBP (ABPM) CFB to EoT, Mean (SD): −2.60 (8.43) mmHg
  Daytime Mean SBP (ABPM) CFB to EoT, Mean (SD): −4.80 (15.10) mmHg
  Nighttime Mean DBP (ABPM) CFB to EoT, Mean (SD): −3.21 (9.55) mmHg
  Nighttime Mean SBP (ABPM) CFB to EoT, Mean (SD): −5.43 (20.36) mmHg
25 mg BID
  LSM Δ with Placebo, 24-hr DBP (ABPM, ANCOVA): −5.13 mmHg
  LSM Δ with Placebo, 24-hr Mean MAP (ABPM, ANCOVA): −6.68 mmHg
  LSM Δ with Placebo, 24-hr SBP (ABPM, ANCOVA): −8.04 mmHg
  LSM Δ with Placebo, Daytime Mean DBP (ABPM, ANCOVA): −5.64 mmHg
  LSM Δ with Placebo, Daytime Mean SBP (ABPM, ANCOVA): −8.76 mmHg
  LSM Δ with Placebo, Mean Central DBP (ABPM, ANCOVA): −7.36 mmHg
  LSM Δ with Placebo, Mean Central Mean BP (ABPM, ANCOVA): −8.87 mmHg
  LSM Δ with Placebo, Mean Central SBP (ABPM, ANCOVA): −10.19 mmHg
  LSM Δ with Placebo, Nighttime Mean DBP (ABPM, ANCOVA): −3.28 mmHg
  LSM Δ with Placebo, Nighttime Mean SBP (ABPM, ANCOVA): −4.66 mmHg
  24-hr Mean DBP (ABPM), Mean (SD): 76.50 (10.59) mmHg
  24-hr Mean MAP (ABPM), Mean (SD): 103.10 (10.92) mmHg
  24-hr Mean SBP (ABPM), Mean (SD): 129.69 (12.57) mmHg
  Daytime Mean DBP (ABPM), Mean (SD): 79.04 (10.41) mmHg
  Daytime Mean SBP (ABPM), Mean (SD): 132.58 (13.62) mmHg
  Nighttime Mean DBP (ABPM), Mean (SD): 71.38 (11.94) mmHg
  Nighttime Mean SBP (ABPM), Mean (SD): 123.92 (12.17) mmHg
  Subjects with nighttime dip 10-20% in 24-hour systolic ABPM: 4 (16.7) n (%)
  Subjects with nighttime dip <10% in 24-hour systolic ABPM: 19 (79.2) n (%)
  Subjects with nighttime dip >20% in 24-hour systolic ABPM: 1 (4.2) n (%)
  24-hr Mean DBP (ABPM) CFB to EoT, Mean (SD): −6.12 (9.77) mmHg
  24-hr Mean MAP (ABPM) CFB to EoT, Mean (SD): −7.42 (12.49) mmHg
  24-hr Mean SBP (ABPM) CFB to EoT, Mean (SD): −8.73 (15.67) mmHg
  Daytime Mean DBP (ABPM) CFB to EoT, Mean (SD): −6.23 (10.43) mmHg
  Daytime Mean SBP (ABPM) CFB to EoT, Mean (SD): −9.08 (17.41) mmHg
  Nighttime Mean DBP (ABPM) CFB to EoT, Mean (SD): −4.13 (10.86) mmHg
  Nighttime Mean SBP (ABPM) CFB to EoT, Mean (SD): −5.96 (15.37) mmHg
50 mg QD
  LSM Δ with Placebo, 24-hr DBP (ABPM, ANCOVA): −2.74 mmHg
